The text below walks through data of patent publication US20230257385A1, “SALT AND SOLID FORMS OF TABERNANTHALOG” (priority 2021, published 2023).

In brackets after ≈: the same amount, converted by molar mass.

Series [1] in a line: Heat-up/cool-down crystallisation screen of sorbate salt (Example 10, Experiments 5, 8). The format is physicochemical. Particulars: for Observations (t = 1 @ T = 20° C.): Tabernanthalog sorbate salt (Form A) crystallised from binary solvents, solvent A 3.0 vol plus solvent B, one pair per sample; for XRPD (centrifuged, wet): wet pellet. As for the experimental part: The relevant solvent (0.225 ml, 3.0 vol) was added to the appropriate vial and the suspensions were stirred and warmed to temperature. If dissolution was not observed, further solvent was added until the solute dissolved, or aliquots of a secondary co-solvent were added to complete dissolution. Once dissolved, the solutions were left to cool down and stand undisturbed under sub-ambient conditions for several days. After crystallisation was judged complete, the products were isolated by centrifugation and the pellets were dried at 40° C. under reduced pressure. Products from the crystallisation (wet and dry) were initially analysed by XRPD (9-minute method), further analyses of certain products were performed by ^1H NMR, DSC and TGA, if the diffraction pattern indicated differences.

Series [2] in a line: Solubility determinations in SIF buffers FaSSIF, FeSSIF, FaSSGF (Example 8, Experiment 5). Particulars: for Tabernanthalog RRT = 1.00 (trended HPLC data, chemical purity): tabernanthalog sorbate salt, 37° C. The method, then: The temperature was maintained at 37° C. for 24 h. […] The suspensions were sampled at the relevant time points and centrifuged. The centrifuged pellets, obtained at the time points were analysed by XRPD as a wet pellet and dried, for evidence of form change.
The temperature was maintained at 37° C. for 24 h.
The suspension was sampled at the relevant time points and centrifuged. […] The centrifuged pellets, obtained at the time points were analyzed by XRPD as a wet pellet and dried, for evidence of form change.

[3] abbreviates: Experiment 5, heat-up/cool-down crystallisation from binary solvents.
The mark [4] stands for this setting: 37 °C, pH 1.6, fassgf or other biorelevant, thermodynamic from solid.
The mark [5] stands for this setting: 37 °C, pH 5, fessif, thermodynamic from solid.
[6] abbreviates: 37 °C, pH 6.5, fassif, thermodynamic from solid.

For the molecule `CC=CC=CC(=O)O.COc1ccc2c3c([nH]c2c1)CCN(C)CC3` [Experiment 5-Sample H], the “Observations (t = 1 @ T = 20° C.)” value in series [1] (Experiment 5) is “Partial”. For the same molecule, in series [1] (setting [3]), the “XRPD (oven dried @ 40° C., 20 h)” value is reported as “Form A” and the “XRPD (centrifuged, wet)” value is reported as “Form A”.
Take `C/C=C/C=C/C(=O)O.COc1ccc2c3c([nH]c2c1)CCN(C)CC3` [Experiment 5-Sample E]: the “Observations (t = 1 @ T = 20° C.)” value in series [1] (Experiment 5) is “Partial”. In series [1] (setting [3]), the “XRPD (oven dried @ 40° C., 20 h)” value is given as “Form A” and the “XRPD (centrifuged, wet)” value is recorded as “Form A”.
On to `COc1ccc2c3c([nH]c2c1)CCN(C)CC3` [Tabernanthalog• Sorbate], for which, in series [2] (setting [4]), the solubility at 1 h was found to be 21.9 mg/mL (≈ 95 mM), the concentration in solution (solubility at 3 h) came to 29.8 mg/mL (≈ 130 mM), the solubility at 6 h amounted to 30.3 mg/mL (≈ 131 mM) and the concentration in solution (solubility at 24 h) was 29.9 mg/mL (≈ 130 mM). Further, in series [2] (setting [5]), the solubility at 1 h is 27.2 mg/mL (≈ 118 mM), the solubility at 3 h was over 30 mg/mL and the solubility at 6 h was over 30 mg/mL. In series [2] (setting [6]), the solubility at 1 h was over 30 mg/mL, the solubility at 3 h is over 30 mg/mL and the solubility at 6 h is over 30 mg/mL. Besides, in series [2] (FaSSGF (pH 1.6), t = 1 h @37° C., suspended solid, dried pellet), the “XRPD (dried)” value is recorded as “Sorbic acid”. In addition, in series [2] (FaSSGF (pH 1.6), t = 1 h @37° C., suspended solid, wet pellet), the “XRPD (wet)” value is on record as “Sorbic acid”.
Turning to `C/C=C/C=C/C(=O)O.COc1ccc2c3c([nH]c2c1)CCN(C)CC3` [Experiment 5-Sample M], the “Observations (t = 1 @ T = 20° C.)” value in series [1] (Experiment 5) is on record as “Liquid”. Moreover, in series [1] (setting [3]), the “XRPD (oven dried @ 40° C., 20 h)” value is “Form A” and the “XRPD (centrifuged, wet)” value is reported as “Form A”.
For the molecule `C/C=C/C=C/C(=O)O.COc1ccc2c3c([nH]c2c1)CCN(C)CC3` [Sample 5-L10], in series [2] (t = 24 h in FaSSGF), the “Tabernanthalog RRT = 1.00 (trended HPLC data, chemical purity)” value is 99.33.
With `C/C=C/C=C/C(=O)O.COc1ccc2c3c([nH]c2c1)CCN(C)CC3` [Sample 5-L1], the “Tabernanthalog RRT = 1.00 (trended HPLC data, chemical purity)” value in series [2] (t = 1 h in FaSSGF) stood at 99.52.
For the molecule `CC=CC=CC(=O)O.COc1ccc2c3c([nH]c2c1)CCN(C)CC3` [Experiment 5-Sample R], in series [1] (Experiment 5), the “Observations (t = 1 @ T = 20° C.)” value is reported as “Liquid”. Further, in series [1] (setting [3]), the “XRPD (oven dried @ 40° C., 20 h)” value is reported as “Form A” and the “XRPD (centrifuged, wet)” value is “Pattern #4”.
For `C/C=C/C=C/C(=O)O.COc1ccc2c3c([nH]c2c1)CCN(C)CC3` [Experiment 5-Sample G], in that order: “Partial”, “Form A” and “Pattern #6”.
On the same counts, the results for `C/C=C/C=C/C(=O)O.COc1ccc2c3c([nH]c2c1)CCN(C)CC3` [Experiment 5-Sample L] are “Partial”, “Form A” and “Form A”.
On the same counts, the results for `CC=CC=CC(=O)O.COc1ccc2c3c([nH]c2c1)CCN(C)CC3` [Experiment 5-Sample B] are “Solid”, “Form A” and “Form A”.
With `C/C=C/C=C/C(=O)O.COc1ccc2c3c([nH]c2c1)CCN(C)CC3` [Experiment 5-Sample C], the “Observations (t = 1 @ T = 20° C.)” value in series [1] (Experiment 5) is on record as “Solid”. Moreover, in series [1] (setting [3]), the “XRPD (oven dried @ 40° C., 20 h)” value was “Form A” and the “XRPD (centrifuged, wet)” value was “Form A”.
Regarding `C/C=C/C=C/C(=O)O.COc1ccc2c3c([nH]c2c1)CCN(C)CC3` [Experiment 5-Sample Q], the “Observations (t = 1 @ T = 20° C.)” value in series [1] (Experiment 5) is “Solid”. Besides, in series [1] (setting [3]), the “XRPD (oven dried @ 40° C., 20 h)” value is recorded as “Form A” and the “XRPD (centrifuged, wet)” value is “Pattern #1”.
On to `C/C=C/C=C/C(=O)O.COc1ccc2c3c([nH]c2c1)CCN(C)CC3` [Experiment 5-Sample I], for which, in series [1] (Experiment 5), the “Observations (t = 1 @ T = 20° C.)” value is recorded as “Liquid”. Also, in series [1] (setting [3]), the “XRPD (oven dried @ 40° C., 20 h)” value is listed as “Form A” and the “XRPD (centrifuged, wet)” value is listed as “Form A”.
For the molecule `CC=CC=CC(=O)O.COc1ccc2c3c([nH]c2c1)CCN(C)CC3` [Experiment 5-Sample A], in series [1] (Experiment 5), the “Observations (t = 1 @ T = 20° C.)” value is listed as “Partial”. For the same molecule, in series [1] (setting [3]), the “XRPD (oven dried @ 40° C., 20 h)” value is listed as “Form A” and the “XRPD (centrifuged, wet)” value is “Form A”.
In the case of `C/C=C/C=C/C(=O)O.COc1ccc2c3c([nH]c2c1)CCN(C)CC3` [Sample 5-L7], the “Tabernanthalog RRT = 1.00 (trended HPLC data, chemical purity)” value in series [2] (t = 6 h in FaSSGF) is recorded as 99.30.
Consider `C/C=C/C=C/C(=O)O.COc1ccc2c3c([nH]c2c1)CCN(C)CC3` [Experiment 5-Sample P], for which, in series [1] (Experiment 5), the “Observations (t = 1 @ T = 20° C.)” value is “Partial”. In series [1] (setting [3]), the “XRPD (oven dried @ 40° C., 20 h)” value was “Form A” and the “XRPD (centrifuged, wet)” value is given as “Form A”.
For `C/C=C/C=C/C(=O)O.COc1ccc2c3c([nH]c2c1)CCN(C)CC3` [Experiment 5-Sample J], in series [1] (Experiment 5), the “Observations (t = 1 @ T = 20° C.)” value is “Partial”. In addition, in series [1] (setting [3]), the “XRPD (oven dried @ 40° C., 20 h)” value is recorded as “Form A” and the “XRPD (centrifuged, wet)” value is “Form A”.
In the case of `CC=CC=CC(=O)O.COc1ccc2c3c([nH]c2c1)CCN(C)CC3` [Experiment 5-Sample K], the “Observations (t = 1 @ T = 20° C.)” value in series [1] (Experiment 5) was “Partial”. Also, in series [1] (setting [3]), the “XRPD (oven dried @ 40° C., 20 h)” value was “Form A” and the “XRPD (centrifuged, wet)” value was “Form A”.
Regarding `C/C=C/C=C/C(=O)O.COc1ccc2c3c([nH]c2c1)CCN(C)CC3` [Experiment 5-Sample O], in series [1] (Experiment 5), the “Observations (t = 1 @ T = 20° C.)” value was “Liquid”. In series [1] (setting [3]), the “XRPD (oven dried @ 40° C., 20 h)” value is given as “Form A” and the “XRPD (centrifuged, wet)” value is recorded as “Form A”.
Turning to `C/C=C/C=C/C(=O)O.COc1ccc2c3c([nH]c2c1)CCN(C)CC3` [Experiment 5-Sample D], the “Observations (t = 1 @ T = 20° C.)” value in series [1] (Experiment 5) was “Liquid”. Also, in series [1] (setting [3]), the “XRPD (oven dried @ 40° C., 20 h)” value is listed as “Form A” and the “XRPD (centrifuged, wet)” value was “Form A”.
With `C/C=C/C=C/C(=O)O.COc1ccc2c3c([nH]c2c1)CCN(C)CC3` [Experiment 5-Sample N], the “Observations (t = 1 @ T = 20° C.)” value in series [1] (Experiment 5) is listed as “Partial”. In series [1] (setting [3]), the “XRPD (oven dried @ 40° C., 20 h)” value is reported as “Form A” and the “XRPD (centrifuged, wet)” value is “Form A”.
On to `CC=CC=CC(=O)O.COc1ccc2c3c([nH]c2c1)CCN(C)CC3` [Experiment 8-Sample A], for which, in series [1] (Experiment 8, repeat of HUCD crystallisations aiming at Pattern #1 (water) and Pattern #6 (heptane/ethyl formate)), the “XRPD (centrifuged, wet)” value is recorded as “Pattern #1”.
`C/C=C/C=C/C(=O)O.COc1ccc2c3c([nH]c2c1)CCN(C)CC3` [Experiment 5-Sample F]: the “Observations (t = 1 @ T = 20° C.)” value in series [1] (Experiment 5) is reported as “Partial”. Moreover, in series [1] (setting [3]), the “XRPD (oven dried @ 40° C., 20 h)” value is given as “Form A” and the “XRPD (centrifuged, wet)” value is given as “Form A”.
